pIC50: −log10 of the molar value. Like-named read-outs stand apart in the source and are kept apart here.
What was measured:
Streptavidin = assay: BIAcore binding of the compound of Example 3 to streptavidin conjugated matrix; conditions: 2.5 mM injected
[1] = tested on: T-cell proliferation (cells from the thymus of normal C3H mice); assay: comitogen-induced thymocyte proliferation procedure (LAF); assay type: cell-based; conditions: for inhibition at 0.0001 µM / inhibition at 0.001 µM / inhibition at 0.003 µM / inhibition at 0.01 µM / inhibition at 1 µM / pIC50: Mus musculus, T-cell; for inhibition at 0.0001 µM: 0.1 nM (so in the source); for inhibition at 0.001 µM: 1 nM; for inhibition at 0.003 µM: 3 nM; for inhibition at 0.01 µM: 10 nM; for ratio compared to rapamycin: >1 = greater inhibition than rapamycin
Protocol: Immunosuppressive activity for a representative compound of this invention was evaluated in an in vitro standard pharmacological test procedure to measure the inhibition of lymphocyte proliferation (LAF).
The comitogen-induced thymocyte proliferation procedure (LAF) was used as an in vitro measure of the immunosuppressive effects of representative compounds. Briefly, cells from the thymus of normal C3H mice are cultured for 72 hours with PHA and IL-1 and pulsed with tritiated thymidine during the last six hours. Cells are cultured with and without various concentrations of rapamycin, cyclosporin A, or test compound. Cells are harvested and incorporated radioactivity is determined. Inhibition of lymphoproliferation is assessed as percent change in counts per minute from non-drug treated controls. For each compound evaluated, rapamycin was also evaluated for the purpose of comparison. An IC50 was obtained for each test compound as well as for rapamycin. […] The results are also expressed as a ratio compared to rapamycin. A positive ratio indicates immunosuppressive activity. […] Calculation of the ratio is shown below. [formula]

[2] = Fluorescent Polarization Immunoassay (FPIA), tracer background
Source text: (§1) The hybridoma cell line in P4G1 was cloned by limiting dilution and is designated as hybridoma cell line, RAP-42-OVAF2 #1hc-. The hybridoma cell line, RAP-42-OVAF2 #1hc, was deposited under the terms of the Budapest Treaty with the American Type Culture Collection (ATCC) of 12301 Parklawn Drive, Rockville, Md., 20852, U.S.A., on Mar. 10, 1994, and was granted accession number HB 11568. […] The ring opened rapamycin-specific antibody, designated as RAP-42-OVAF2 #1MoAb, was isolated and purified using conventional methodology.

FKBP12 = assay: Fluorescent Polarization Immunoassay (FPIA), tracer with FKBP12; assay type: binding
Source text: as §1

RAP-42-OVAF2#1MoAb [3] = assay: Fluorescent Polarization Immunoassay (FPIA), tracer with antibody; assay type: binding
Source text: as §1

[4] = tested on: rapamycin specific antibody; assay: competitive inhibition ELISA, binding of the compound of Example 3 to rapamycin specific antibody (Table 2); conditions: for OD: compound of Example 3 0.17 μM, 492 nm
Protocol: The compound of Example 3 was used as a representative compound of this invention. Microtiter plates (Immulon I) were coated overnight with 100 μl of goat anti-mouse antibody (10 μg/ml in 10 mM potassium phosphate buffer, pH 7.2) at 4° C. The plates were flicked and blocked with 100 μl of 1% bovine sera albumin in phosphate buffered saline overnight at 4° C. After flicking and washing the plates three times with 0.2×PBS containing 0.02% Triton X-100 and 0.004% thimerosal, rapamycin specific antibody (100 μl of 1 μg/ml) was added to each well and incubated at room temperature for 1-4 hour. After flicking and washing the plates three times with 0.2×PBS containing 0.02% Triton X- 100 and 0.004% thimerosal, the compound of Example 3 (100 μl, 0.17 μM) in the presence or absence of various concentrations of rapamycin was added and incubated for 1 hour. After flicking and washing the plates three times with 0.2×PBS containing 0.02% Triton X-100 and 0.004% thimerosal, streptavidin conjugated to horseradish peroxidase (100 μl, 0.2 μg/ml) was incubated at room temperature for 1 hour in the dark. After flicking and washing the plates three times with 0.2×PBS containing 0.02% Triton X-100 and 0.004% thimerosal, OPD substrate was added and the plates were incubated covered for 15 min. at room temperature in the dark. The optical density was read on a spectrophotometer at 492 nm.

[5] = target: glutathione S-transferase-FK506 binding protein (GST-FKBP) (Homo sapiens, UniProt P62942); assay: Rapamycin Competitive Binding Assay using the Compound of Example 3, receptor based (Table 3); conditions: compound of Example 3 50 ng/ml, 450 nm
Protocol: The following is an example of the use of the compounds of this invention in a receptor based assay to measure rapamycin levels using a rapamycin-binding protein and the compound of Example 3 as the ligand. Wells of microtiter plates were coated with 0.5 μg/well of the fusion protein, glutathione S-transferase-FK506 binding protein (GST-FKBP), in 100 μl of 0.02M HEPES buffer, pH 7.4. Plates were incubated overnight at 4° C. Plates were washed 3 × with HEPES buffer. Well surfaces were blocked by the addition of 1% bovine serum albumin fraction V (BSA) in HEPES buffer ([…]). Plates were incubated for 1 hour at ambient temperature. Plates were washed three times. Various concentrations of rapamycin were added to the compound of Example 3 (50 ng/ml) and 100 μl of the solutions were added to wells in triplicate. After incubation of the plates at ambient temperature followed by washing the plates with HEPES buffer, 100 μl of diluted avidin-horseradish peroxidase conjugate was added to each well. After incubation for 1 hour at ambient temperature and washing five times, 100 μl of tetramethylbenzidine substrate was added to each well. The plates were incubated for 30 minutes in the dark at ambient temperature. The reactions were stopped and the optical density was read at 450 nm.

IgE-like antibodies = conditions: Martel et al.; cited from earlier work
[6] = tested on: experimental allergic encephalomyelitis model; conditions: model for multiple sclerosis; Martel et al.; cited from earlier work
adjuvant arthritis model = conditions: model for rheumatoid arthritis; Martel et al.; cited from earlier work
RAP-42-OVAF2#1MoAb [7] = assay: FPIA competition of the binding between the antibody and A3 tracer
Source text: as §1

glutathione S-transferase-FK506 binding protein (GST-FKBP), sequence (P62942 2-108): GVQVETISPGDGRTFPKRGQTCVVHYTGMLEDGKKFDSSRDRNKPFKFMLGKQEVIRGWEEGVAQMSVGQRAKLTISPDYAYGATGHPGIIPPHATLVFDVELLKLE

CO[C@H]1C[C@@H]2CC[C@@H](C)[C@@](O)(O2)C(=O)C(=O)N2CCCC[C@H]2C(=O)O[C@H]([C@H](C)C[C@@H]2CC[C@@H](OC(=O)CNC(=O)CCCC[C@@H]3SC[C@@H]4NC(=O)N[C@@H]43)[C@H](OC)C2)CC(=O)[C@H](C)/C=C(\C)[C@@H](O)[C@@H](OC)C(=O)[C@H](C)C[C@H](C)/C=C/C=C/C=C/1C [Example 3, Rapamycin 42-ester with glycylbiotin] gave a resonance units bound (Streptavidin) of 115 resonance units, an inhibition at 0.0001 µM ([1]; first evaluation) of 98% and an inhibition at 0.001 µM ([1]; first evaluation) of 46%. It also gave an inhibition at 0.003 µM ([1]; first evaluation) of 65%, an inhibition at 0.01 µM ([1]; first evaluation) of 95% and an inhibition at 1 µM ([1]; first evaluation) of 99%. The pIC50 ([1]; first evaluation, read-out: IC50) was 8.55, the inhibition at 0.0001 µM ([1]; second evaluation) was 94% and the inhibition at 0.001 µM ([1]; second evaluation) was 16%. It also gave an inhibition at 0.003 µM ([1]; second evaluation) of 51%, an inhibition at 0.01 µM ([1]; second evaluation) of 88% and an inhibition at 1 µM ([1]; second evaluation) of 96%. The pIC50 ([1]; second evaluation, read-out: IC50) was 8.89, the “ratio compared to rapamycin” value ([1]; first evaluation) was 2.39 and the “ratio compared to rapamycin” value ([1]; second evaluation) was 0.63.
Work on CO[C@H]1C[C@@H]2CC[C@@H](C)[C@@](O)(O2)C(=O)C(=O)N2CCCC[C@H]2C(=O)O[C@H]([C@H](C)C[C@@H]2CC[C@@H](OC(=O)CCC(=O)NCC(=O)Nc3ccc4c(c3)C(=O)OC43c4ccc(O)cc4Oc4cc(O)ccc43)[C@H](OC)C2)CC(=O)[C@H](C)/C=C(\C)[C@@H](O)[C@@H](OC)C(=O)[C@H](C)C[C@H](C)/C=C/C=C/C=C/1C [rapamycin 42-ester with succinic acid conjugate with 5-glycinylfluoresceinamine] yielded a polarization ([2]; tracer alone, 10 nM, 100 mM sodium phosphate pH 7.5) of 77 mP, a polarization (FKBP12; tracer 10 nM, after addition of an excess of FKBP12) of 195 mP and a polarization (RAP-42-OVAF2#1MoAb [3]; tracer 10 nM, excess of RAP-42-OVAF2#1MoAb) of 84 mP.
In the case of CO[C@H]1C[C@@H]2CC[C@@H](C)[C@@](O)(O2)C(=O)C(=O)N2CCCC[C@H]2C(=O)O[C@H]([C@H](C)C[C@@H]2CC[C@@H](O)[C@H](OC)C2)CC(=O)[C@H](C)/C=C(\C)[C@@H](O)[C@@H](OC)C(=O)[C@H](C)C[C@H](C)/C=C/C=C/C=C/1C [rapamycin], the “% INHIBITION of binding of the compound of Example 3” value (“% INHIBITION” for short) ([4]; rapamycin 0.005 μM) was 6.6%, the OD ([4]; rapamycin 0.005 μM) was 1.866 and the “% INHIBITION” value ([4]; rapamycin 0.05 μM) was 7.8%. The OD ([4]; rapamycin 0.05 μM) was 1.842, the “% INHIBITION” value ([4]; rapamycin 0.5 μM) was 30.1% and the OD ([4]; rapamycin 0.5 μM) was 1.419. The “% INHIBITION” value ([4]; rapamycin 5 μM) was 67.6%, the OD ([4]; rapamycin 5 μM) was “.705” and the “Optical Density” value ([5]; rapamycin 1.5625 ng/ml) was 2.6160. The “Optical Density” value ([5]; rapamycin 3.125 ng/ml) was 2.3040, the “Optical Density” value ([5]; rapamycin 6.25 ng/ml) was 2.0557 and the “Optical Density” value ([5]; rapamycin 12.5 ng/ml) was 1.3913. The “Optical Density” value ([5]; rapamycin 25 ng/ml) was 0.7473, the “Optical Density” value ([5]; rapamycin 50 ng/ml) was 0.3573 and the “Optical Density” value ([5]; rapamycin 100 ng/ml) was 0.2433. For the same compound, the “Optical Density” value ([5]; rapamycin 200 ng/ml) was 0.2177, the “inhibition of formation of IgE-like antibodies” value (IgE-like antibodies) was “effectively inhibited” and the “effect in experimental allergic encephalomyelitis model” value [6] was “effective”. For the same compound, the pIC50 ([1]; first evaluation) was 8.17, the pIC50 ([1]; second evaluation) was 9.10 and the “effect in adjuvant arthritis model” value (adjuvant arthritis model) was “effective”. For the same compound, the “polarization, competition of the binding between the antibody and A3 tracer” value (“polarization, competition” below) (RAP-42-OVAF2#1MoAb [7]; after 38 min) was 121 mP and the “polarization, competition” value (RAP-42-OVAF2#1MoAb [7]; at 3 min) was 155 mP.
With CO[C@@H](C[C@@H]1CC[C@@H](C)[C@](O)(C(=O)C(=O)N2CCCC[C@H]2C(=O)O)O1)/C(C)=C/C=C/C=C/[C@@H](C)C[C@@H](C)C(=O)[C@H](OC)[C@H](O)/C(C)=C/[C@@H](C)C(=O)/C=C/[C@H](C)C[C@@H]1CC[C@@H](O)[C@H](OC)C1 [secorapamycin] the “polarization, competition” value (RAP-42-OVAF2#1MoAb [7]; after 38 min) was 89 mP and the “polarization, competition” value (RAP-42-OVAF2#1MoAb [7]; at 3 min) was 105 mP.
For “secorapamycin 42-ester with succinic acid conjugate with 5-fluoresceinamine [Example A3]”, the “background reading (polarization)” value ([2]; A3 tracer alone) was 75 mP, the polarization reading (FKBP12; A3 in presence of FKBP12 (background levels)) was 79 mP and the polarization reading (RAP-42-OVAF2#1MoAb [3]; A3 in presence of RAP-42-OVAF2#1MoAb) was 178 mP.
